Among the data in patent publication US12492210B2, “Tricyclic compounds and their use” (HUTCHISON MEDIPHARMA LIMITED, priority 2019, dated 2025) are IC50 values, retold here.

Bounds are passed on as bounds.

As usually defined, the IC50 is the concentration that gives 50% inhibition.

For experiment [1], the target named is T1, MAPK1(ERK2) enzyme (Homo sapiens, UniProt P28482).
T1 construct: purchased Invitrogen PV3313
The experiment in a line: Z-Lyte Kinase Assay of ERK2. Particulars: read-out: Example 18 IC50. Type of experiment: biochemical. Put shortly: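 FRET-based Z-LYTE assay using ERK2 kinase with Ser/Thr3 peptide; compound tested at 0.00046–1 μM final in 2% DMSO. Kinase reaction ran 1 h at 25-30° C, followed by 1 h development. The coumarin/fluorescein emission ratio (445/520 nm) gave % phosphorylation, and IC50 was fitted from inhibition relative to uninhibited control.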

The subject of experiment [2] is p-RSK (Thr359) in colo205 cells. Put plainly: p-RSK (Thr359) Acumen Assay in Colo205. To be noted: Homo sapiens, COLO 205, 1 hour compound incubation, read-out: Example 19 IC50. Type of experiment: cell-based. Put shortly: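 Colo205 cells (4000/well, seeded overnight in 10% FBS) were exposed 1 hour at 37° C to compound added from a 3–0.001 μM dilution series in 5% DMSO. Cells were then fixed, permeabilised and immunostained for p-RSK Thr359, with PI counterstain. Acumen cytometry gave the percentage of positive cells, normalised to untreated wells and 3 uM GDC0994 wells, for the IC50 fit.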

T1 sequence (P28482 whole entry): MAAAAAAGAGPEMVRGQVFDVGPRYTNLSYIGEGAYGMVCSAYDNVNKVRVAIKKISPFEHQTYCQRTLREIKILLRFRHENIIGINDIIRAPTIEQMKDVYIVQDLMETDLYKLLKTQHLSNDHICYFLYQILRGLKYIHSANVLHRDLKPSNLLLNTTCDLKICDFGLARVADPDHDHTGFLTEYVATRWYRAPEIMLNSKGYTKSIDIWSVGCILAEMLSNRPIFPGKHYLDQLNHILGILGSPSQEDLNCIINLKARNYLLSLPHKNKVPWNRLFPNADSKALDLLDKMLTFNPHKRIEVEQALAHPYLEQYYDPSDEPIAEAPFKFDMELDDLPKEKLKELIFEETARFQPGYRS

Turning to `Cn1nccc1Nc1cc(-c2cc3n(c2)CC2(CC2)Cn2c-3nnc2C(F)(F)C(F)F)c(Cl)cn1` [Compound 93], the IC50 in experiment [1] is 5 to 10 nM; in experiment [2], at most 100 nM.
On to `Cc1cnc(Nc2ccnn2C)nc1-c1cc2n(c1)CCn1c-2nnc1C(F)(F)c1ccccc1Cl` [Compound 94], for which the IC50 in experiment [1] is at most 5 nM; in experiment [2], at most 100 nM.
The matching figures for `C[C@H]1Cn2cc(-c3ccnc(Nc4ccnn4C)n3)cc2-c2nnc(C(F)(F)c3ccccc3Cl)n21` [Compound 95]: 5 to 10 nM and at most 100 nM.
The matching figures for `Cn1nccc1Nc1cc(-c2cc3n(c2)C[C@H](CF)n2c-3nnc2C(F)(F)c2ccccc2F)ccn1` [Compound 96]: 5 to 10 nM and at most 100 nM.
Consider `C[C@H]1Cn2cc(-c3nc(Nc4ccnn4C)ncc3F)cc2-c2nnc(C(F)(F)c3ccccc3F)n21` [Compound 97], for which the IC50 was 5 to 10 nM in experiment [1] and at most 100 nM in experiment [2].
The matching figures for `Cn1nccc1Nc1ncc(F)c(-c2cc3n(c2)C[C@H](CF)n2c-3nnc2C(F)(F)c2ccccc2)n1` [Compound 98]: at most 5 nM and at most 100 nM.
`Cc1cc(C(F)(F)c2nnc3n2[C@@H](CF)Cn2cc(-c4cc(Nc5ccnn5C)ncc4C)cc2-3)on1` [Compound 99]: the results for the IC50 in experiment [1] and in experiment [2] were at most 5 nM and over 100 nM, respectively.
With `Cn1nccc1Nc1nccc(-c2cc3n(c2)C[C@H](CF)n2c-3nnc2C(F)(F)c2ccccc2F)n1` [Compound 100], the IC50 in experiment [1] is at most 5 nM; in experiment [2] it was at most 100 nM.
In the case of `Cc1cnc(Nc2ccnn2C)cc1-c1cc2n(c1)C[C@H](CF)n1c-2nnc1C(F)(F)c1nonc1C` [Compound 101], the IC50 in experiment [1] was at most 5 nM; in experiment [2] it was at most 100 nM.
Consider `Cc1cnc(Nc2ccnn2C)nc1-c1cc2n(c1)C[C@H](C)n1c-2nnc1C(F)(F)n1cc(Cl)cn1` [Compound 102], for which the values for the IC50 in experiment [1] and in experiment [2] were at most 5 nM and at most 100 nM, respectively.
Turning to `Cc1nonc1C(F)(F)c1nnc2n1[C@@H](C)Cn1cc(-c3cc(Nc4ccnn4C)ncc3Cl)cc1-2` [Compound 103], the IC50 in experiment [1] was 5 to 10 nM; in experiment [2] it was at most 100 nM.
As to `Cc1cnc(Nc2ccnn2C)cc1-c1cc2n(c1)C[C@H](CF)n1c-2nnc1C(F)(F)n1ccc(F)n1` [Compound 104], the figures for the half-inhibitory concentration (IC50) in experiment [1] and in experiment [2] were at most 5 nM and at most 100 nM, respectively.
Consider `C[C@H]1CCn2cc(-c3cc(Nc4ccnn4C)ncc3Cl)cc2-c2nnc(C3(C(C)(F)F)CCC3)n21` [Compound 105], for which the IC50 in experiment [1] was 5 to 10 nM; in experiment [2] it was at most 100 nM.
The like results for `Cn1nccc1Nc1cc(-c2cc3n(c2)CC(F)(F)Cn2c(Cn4cc(F)cn4)nnc2-3)c(Cl)cn1` [Compound 106] were, in that order, at most 5 nM and at most 100 nM.
The matching figures for `Cn1nccc1Nc1cc(-c2cc3n(c2)CC(F)(F)Cn2c(COC(F)(F)F)nnc2-3)c(Cl)cn1` [Compound 107]: at most 5 nM and over 100 nM.
Take `C[C@H]1Cn2cc(-c3cc(Nc4ccnn4C)ncc3Cl)cc2-c2nnc(C(F)(F)n3cc(F)cn3)n21` [Compound 108]: the IC50 in experiment [1] is at most 5 nM; in experiment [2], at most 100 nM.
For the molecule `C[C@H]1Cn2cc(-c3cc(Nc4ccnn4C)ncc3F)cc2-c2nnc(C(F)(F)n3cc(Cl)cn3)n21` [Compound 109], the IC50 in experiment [1] is at most 5 nM; in experiment [2], over 100 nM.
Regarding `Cn1nccc1Nc1cc(-c2cc3n(c2)C[C@H](CF)n2c-3nnc2C(F)(F)c2ncco2)c(Cl)cn1` [Compound 110], the results for the IC50 in experiment [1] and in experiment [2] were at most 5 nM and over 100 nM, respectively.
The like results for `Cn1nccc1Nc1nccc(-c2cc3n(c2)C[C@H](CF)n2c-3nnc2C(F)(F)n2cc(Cl)cn2)n1` [Compound 111] were, in that order, at most 5 nM and over 100 nM.
Turning to `Cn1nccc1Nc1cc(-c2cc3n(c2)C[C@H](CF)n2c-3nnc2C(F)(F)c2ccon2)c(Cl)cn1` [Compound 112], the IC50 in experiment [1] is 5 to 10 nM; in experiment [2], at most 100 nM.
The like results for `Cn1nccc1Nc1cc(-c2cc3n(c2)CC(F)(F)Cn2c-3nnc2C(F)(F)C(F)F)c(Cl)cn1` [Compound 113] were, in that order, 5 to 10 nM and over 100 nM.
The matching figures for `Cn1nccc1Nc1cc(-c2cc3n(c2)C[C@H](CF)n2c-3nnc2C(F)(F)C(F)(F)F)c(Cl)cn1` [Compound 114]: at most 5 nM and over 100 nM.
The like results for `Cn1nccc1Nc1cc(-c2cc3n(c2)C[C@H](F)Cn2c-3nnc2C(F)(F)C(F)(F)F)c(Cl)cn1` [Compound 115] were, in that order, 5 to 10 nM and over 100 nM.
Turning to `Cn1nccc1Nc1cc(-c2cc3n(c2)C[C@H](CF)n2c-3nnc2C2(C(C)(F)F)CCC2)c(Cl)cn1` [Compound 116], the values for the IC50 in experiment [1] and in experiment [2] were 5 to 10 nM and over 100 nM, respectively.
Turning to `Cc1cnc(Nc2ccnn2C)cc1-c1cc2n(c1)CC(F)(F)Cn1c-2nnc1C1(C(F)(F)F)CCC1` [Compound 117], the IC50 in experiment [1] is at most 5 nM; in experiment [2], at most 100 nM.
With `Cc1cnc(Nc2ccnn2C)cc1-c1cc2n(c1)C[C@H](C)n1c-2nnc1C(F)(F)c1ccccc1Cl` [Compound 118], the IC50 is over 10 nM in experiment [1] and at most 100 nM in experiment [2].
As for `Cn1nccc1Nc1cc(-c2cc3n(c2)CC2(CCC2)Cn2c-3nnc2C(F)(F)C(F)F)c(Cl)cn1` [Compound 119], the IC50 in experiment [1] is 5 to 10 nM; in experiment [2], over 100 nM.
The matching figures for `Cn1nccc1Nc1cc(-c2cc3n(c2)CCCn2c-3nnc2C2(C(F)F)CC(F)(F)C2)c(Cl)cn1` [Compound 120]: at most 5 nM and at most 100 nM.
The like results for `Cn1nccc1Nc1cc(-c2cc3n(c2)C[C@H](CF)n2c-3nnc2C2(C(F)(F)F)CCC2)c(Cl)cn1` [Compound 121] were, in that order, at most 5 nM and at most 100 nM.
`Cn1nccc1Nc1cc(-c2cc3n(c2)C[C@@H](F)Cn2c-3nnc2C2(C(F)(F)F)CCC2)c(Cl)cn1` [Compound 122]: the IC50 in experiment [1] was at most 5 nM; in experiment [2], at most 100 nM.
The matching figures for `Cn1nccc1Nc1cc(-c2cc3n(c2)C[C@H](F)Cn2c-3nnc2C2(C(F)(F)F)CCC2)c(Cl)cn1` [Compound 123]: at most 5 nM and at most 100 nM.
The like results for `Cc1cnc(Nc2ccnn2C)cc1-c1cc2n(c1)C[C@H](CF)n1c-2nnc1C(F)(F)n1ccccc1=O` [Compound 124] were, in that order, at most 5 nM and at most 100 nM.
In the case of `Cc1cnc(Nc2ccnn2C)nc1-c1cc2n(c1)C[C@H](C)n1c-2nnc1C(F)(F)c1ccccc1Cl` [Compound 125], the values for the IC50 in experiment [1] and in experiment [2] were 5 to 10 nM and at most 100 nM, respectively.
Consider `Cc1cnc(Nc2ccnn2C)cc1-c1cc2n(c1)C[C@H](CF)n1c-2nnc1C(F)(F)c1ccccc1F` [Compound 126], for which the IC50 is 5 to 10 nM in experiment [1] and at most 100 nM in experiment [2].
As to `Cc1cnc(Nc2ccnn2C)cc1-c1cc2n(c1)C[C@H](CF)n1c-2nnc1C(F)(F)c1cccc(F)c1` [Compound 127], the half-inhibitory concentration (IC50) was 5 to 10 nM in experiment [1] and at most 100 nM in experiment [2].
The like results for `Cc1cnc(Nc2ccnn2C)cc1-c1cc2n(c1)C[C@H](CF)n1c-2nnc1C(F)(F)c1ccc(F)cc1` [Compound 128] were, in that order, 5 to 10 nM and at most 100 nM.
The like results for `Cc1cnc(Nc2ccnn2C)cc1-c1cc2n(c1)CC1(CCC1)Cn1c-2nnc1C1(C(F)(F)F)CCC1` [Compound 129] were, in that order, at most 5 nM and at most 100 nM.
On to `Cc1cnc(Nc2ccnn2C)nc1-c1cc2n(c1)C[C@H](C)n1c-2nnc1C(F)(F)c1c(F)cccc1F` [Compound 130], for which the figures for the IC50 in experiment [1] and in experiment [2] were 5 to 10 nM and over 100 nM, respectively.
The matching figures for `Cc1cnc(Nc2ccnn2C)nc1-c1cc2n(c1)C[C@H](CF)n1c-2nnc1C(F)(F)c1ccccc1F` [Compound 131]: at most 5 nM and at most 100 nM.
As for `Cc1cnc(Nc2ccnn2C)cc1-c1cc2n(c1)C[C@H](CF)n1c-2nnc1C(F)(F)c1ncccc1F` [Compound 133], the IC50 in experiment [1] was at most 5 nM; in experiment [2], at most 100 nM.
The like results for `Cc1cnc(Nc2ccnn2C)nc1-c1cc2n(c1)C[C@H](C)n1c-2nnc1C(F)(F)c1cc(F)ccc1F` [Compound 134] were, in that order, 5 to 10 nM and at most 100 nM.
The matching figures for `C[C@H]1Cn2cc(-c3cc(Nc4ccnn4C)ncc3Cl)cc2-c2nnc(C(F)(F)c3ccccc3F)n21` [Compound 135]: 5 to 10 nM and at most 100 nM.
For the molecule `Cn1nccc1Nc1cc(-c2cc3n(c2)CC2(CC2)Cn2c-3nnc2C2(C(C)(F)F)CCC2)c(Cl)cn1` [Compound 136], the IC50 is over 10 nM in experiment [1] and at most 100 nM in experiment [2].
The matching figures for `Cn1nccc1Nc1cc(-c2cc3n(c2)C[C@H](CF)n2c-3nnc2C(F)(F)c2ccccc2)c(Cl)cn1` [Compound 137]: over 10 nM and at most 100 nM.
In the case of `Cn1nccc1Nc1cc(-c2cc3n(c2)C[C@H](CF)n2c-3nnc2C(F)(F)c2ccccc2Cl)ccn1` [Compound 138], the IC50 is 5 to 10 nM in experiment [1] and at most 100 nM in experiment [2].
The like results for `Cn1nccc1Nc1cc(-c2cc3n(c2)C[C@H](CF)n2c(Cc4c(F)cccc4F)nnc2-3)c(Cl)cn1` [Compound 139] were, in that order, at most 5 nM and at most 100 nM.
The like results for `Cn1nccc1Nc1cc(-c2cc3n(c2)CC(F)(F)Cn2c-3nnc2C2(C(F)(F)F)CC2)c(Cl)cn1` [Compound 140] were, in that order, at most 5 nM and at most 100 nM.
The like results for `Cn1nccc1Nc1cc(-c2cc3n(c2)C[C@H](CF)n2c-3nnc2C(F)(F)c2ccccn2)c(Cl)cn1` [Compound 141] were, in that order, at most 5 nM and at most 100 nM.
